{"source": "the supplement of paper PMC10307832", "test_in_all_cases": "relative viability (nuclei count vs DMSO), 5 days (fraction); higher = more cells survive", "key": {"[1]": {"compound": "CC1=C(CC(=O)O)c2cc(F)ccc2/C1=C\\c1ccc([S+](C)[O-])cc1 [Sulindac] + CS(=O)(=O)CCNCc1ccc(-c2ccc3ncnc(Nc4ccc(OCc5cccc(F)c5)c(Cl)c4)c3c2)o1 [Lapatinib] (partner 2 µM)", "method_in_brief": "(§1)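 For relative viability, nuclei counts in treated wells were divided by those in vehicle wells. Lung cancer cell lines had been pin-tool dosed in 1536-well plates the day after seeding and cultured for 5 days, then fixed and stained in one step (final 0.05% Triton X-100, 1% formaldehyde, 1 ug/ml Hoechst) and imaged at 4×. Doses were one drug alone or a fixed anchor-drug dose plus five library-drug doses (not always all listed) in √10 steps, and values are duplicate-plate medians.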"}, "[2]": {"compound": "O=c1[nH]cc(F)c(=O)[nH]1 [5-Fluorouracil] + CC(=O)Nc1cccc(-n2c(=O)n(C3CC3)c(=O)c3c(Nc4ccc(I)cc4F)n(C)c(=O)c(C)c32)c1 [Trametinib] (partner 0.02 µM)", "method_in_brief": "as §1"}, "[3]": {"compound": "O=c1[nH]cc(F)c(=O)[nH]1 [5-Fluorouracil] + CC(=O)c1c(C)c2cnc(Nc3ccc(N4CCNCC4)cn3)nc2n(C2CCCC2)c1=O [Palbociclib] (partner 0.5 µM)", "method_in_brief": "as §1"}, "[4]": {"compound": "O=c1[nH]cc(F)c(=O)[nH]1 [5-Fluorouracil] + C[C@@H](Oc1cc(-c2cnn(C3CCNCC3)c2)cnc1N)c1c(Cl)ccc(F)c1Cl [Crizotinib] (partner 1 µM)", "method_in_brief": "as §1"}}, "data": [{"cell line": "HCC-78", "values": [{"measurement": "relative viability", "setting": "[1]; first compound 0.08 µM", "value": 0.868}, {"measurement": "relative viability", "setting": "[1]; first compound 0.253 µM", "value": 0.623}, {"measurement": "relative viability", "setting": "[1]; first compound 0.8 µM", "value": 0.28}, {"measurement": "relative viability", "setting": "[1]; first compound 2.53 µM", "value": 0.569}, {"measurement": "relative viability", "setting": "[1]; first compound 8 µM", "value": 0.944}, {"measurement": "relative viability", "setting": "[2]; first compound 0.02 µM", "value": 1.01}, {"measurement": "relative viability", "setting": "[2]; first compound 0.2 µM", "value": 0.717}, {"measurement": "relative viability", "setting": "[2]; first compound 0.6325 µM", "value": 0.435}, {"measurement": "relative viability", "setting": "[2]; first compound 2 µM", "value": 0.297}, {"measurement": "relative viability", "setting": "[3]; first compound 0.02 µM", "value": 0.467}, {"measurement": "relative viability", "setting": "[3]; first compound 0.2 µM", "value": 0.529}, {"measurement": "relative viability", "setting": "[3]; first compound 0.6325 µM", "value": 0.496}, {"measurement": "relative viability", "setting": "[3]; first compound 2 µM", "value": 0.451}, {"measurement": "relative viability", "setting": "[4]; first compound 0.02 µM", "value": 0.331}, {"measurement": "relative viability", "setting": "[4]; first compound 0.2 µM", "value": 0.311}, {"measurement": "relative viability", "setting": "[4]; first compound 0.6325 µM", "value": 0.254}]}, {"cell line": "NCI-H1975", "values": [{"measurement": "relative viability", "setting": "[1]; first compound 0.08 µM", "value": 1.27}, {"measurement": "relative viability", "setting": "[1]; first compound 0.253 µM", "value": 1.03}, {"measurement": "relative viability", "setting": "[1]; first compound 2.53 µM", "value": 0.952}, {"measurement": "relative viability", "setting": "[1]; first compound 8 µM", "value": 1.01}, {"measurement": "relative viability", "setting": "[2]; first compound 0.02 µM", "value": 0.307}, {"measurement": "relative viability", "setting": "[2]; first compound 0.2 µM", "value": 0.548}, {"measurement": "relative viability", "setting": "[2]; first compound 0.6325 µM", "value": 0.313}, {"measurement": "relative viability", "setting": "[2]; first compound 2 µM", "value": 0.238}, {"measurement": "relative viability", "setting": "[3]; first compound 0.02 µM", "value": 0.671}, {"measurement": "relative viability", "setting": "[3]; first compound 0.2 µM", "value": 0.768}, {"measurement": "relative viability", "setting": "[3]; first compound 0.6325 µM", "value": 0.355}, {"measurement": "relative viability", "setting": "[3]; first compound 2 µM", "value": 0.189}, {"measurement": "relative viability", "setting": "[4]; first compound 0.02 µM", "value": 1}, {"measurement": "relative viability", "setting": "[4]; first compound 0.2 µM", "value": 1.01}, {"measurement": "relative viability", "setting": "[4]; first compound 0.6325 µM", "value": 0.429}, {"measurement": "relative viability", "setting": "[4]; first compound 2 µM", "value": 0.263}]}]}
